In US6262104A, “Diarylalkenylamine derivatives” (SmithKline Beecham p.l.c., priority 1995, dated 2001):
Where a name gives a salt, the structure may show the parent alone.

Target: T1, delta (Mus musculus, UniProt P32300)
T1 construct: Vasa deferentia were obtained from CD-1 mice; from tissue; host or cells: vas deferens of CD-1 mice
Assay: Mouse vas deferens (MVD) bioassay, delta agonist/antagonist activity
Conditions: CD-1 mouse vasa deferentia, electrically stimulated, Mg2+-free Krebs buffer, 37° C.
Procedure: The delta agonist/antagonist activity of the compounds of the present invention is determined in the mouse vas deferens (MVD) bioassay as described below.
Vasa deferentia were obtained from CD-1 mice and were suspended in a Mg^2+ - free Krebsa buffer at 37° C. The tissues were electrically stimulated with pulse trains having the following parameters: train duration 50 ms, stimulus duration 2 ms, frequency of stimuli 50 Hz, maximal voltage 60-70 V, train frequency 0.1 Hz. Concentration response curves for each compounds were constructed cumulatively. Linear regression analysis and IC50 concentrations were evaluated according to Talarida and Murray (Manual of Pharmacological Calculations, Springer Verlag NY, 1981).

T1 sequence (P32300 whole entry): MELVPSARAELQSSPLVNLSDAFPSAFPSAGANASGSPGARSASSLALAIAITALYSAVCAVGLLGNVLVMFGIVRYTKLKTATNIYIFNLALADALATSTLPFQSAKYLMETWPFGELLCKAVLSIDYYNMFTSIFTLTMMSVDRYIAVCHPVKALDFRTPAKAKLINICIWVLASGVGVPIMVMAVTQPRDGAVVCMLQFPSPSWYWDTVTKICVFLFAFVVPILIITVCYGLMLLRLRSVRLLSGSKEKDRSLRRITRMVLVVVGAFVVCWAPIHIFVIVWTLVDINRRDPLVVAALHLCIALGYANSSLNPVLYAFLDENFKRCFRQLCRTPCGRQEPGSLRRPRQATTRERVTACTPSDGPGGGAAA

CCN(CC)C(=O)c1ccc(/C(=C\CN2CCCC2)c2cccc(O)c2)cc1 [Example 2, (E)-N,N-Diethyl-4-[[1-(3-hydroxyphenyl)-3-pyrrolidin-1-yl]-1-propenyl]benzamide citrate]
IC50: 30 nM
